These results are taken from PubChem BioAssay AID540268 (Broad Institute, 2011).

The structures appear in SMILES notation. Activity calls are given as the source filed them. No rule for the calls is given here.

A short description of the first experiment: growth inhibition of yeast carrying parasite Hsp90, dose response, anti-malarial Hsp90 inhibitor project, ATP luminescence, 48 h, cherry-picked samples (AID 540268).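 As to activity change, negative = inhibition: 0% = neutral control wells and -100% = positive control wells.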 Particulars: yeast expressing the parasite Hsp90, ATP luminescence.
On to `CCOc1ccc(Br)cc1C1=NN(C(C)=O)C(c2ccc([N+](=O)[O-])s2)O1` (stereo unspecified), for which the AC50 (as a rule, the concentration giving half of the maximal activity seen) is 8.12 µM.

For the compound `CC(Oc1ccc(Cl)cc1)C(=O)NNC(=S)NC(=O)c1ccco1` (stereo unspecified), the AC50 was 1.94 µM. Still for that read-out and setting: the figure for `Cc1ccc2nc(-c3cccc(NS(C)(=O)=O)c3)cc(-c3ccccc3)c2c1` is 9.6 µM; for `Clc1ccc(N=c2ssnc2Cl)cc1` it is 2.69 µM. On the same count and under the same terms, for `CC(=NNC(=S)N1CCCCCC1)c1ccccn1` the value was 3.89 µM; for `O=c1cc(-c2ccccc2)cc(-c2ccccc2)n1O`, 1.17 µM. The same measure, in the same setting: the figure for `O=C(O)c1ccc(N/N=C/c2ccc(-c3ccccc3)cc2)cc1` is 4.22 µM; for `CCN1/C(=C/c2ccc3cc(C)cc(C)c3[n+]2CC)Sc2cc(C)ccc21` it is 2.91 µM; for `Cc1ccc2nc(/C(C#N)=C\c3ccc([N+](=O)[O-])o3)[nH]c2c1` it is less than 0.195 µM. Consider `CC(C)c1ccc(-c2cc(C(=O)N3N=C(C(F)F)CC3(O)C(F)F)c3ccccc3n2)cc1` (stereo unspecified), for which the AC50 was 4.24 µM.

On to `Cc1ccc(O)c(NC(=S)NC(=O)c2ccc(-c3ccc(Cl)cc3)o2)c1`, for which the AC50 is 14.7 µM. Same read-out and setting: the figure for `O=C(Oc1c(Cl)cc(Cl)c2cccnc12)c1cccs1` is 4.26 µM; for `N#CSCC(=O)c1cccc2ccccc12` it is 1.92 µM. Same read-out and setting: the figure for `Nc1c(C(=O)Nc2ccc3c(c2)OCCO3)nnn1Cc1ccccc1Cl` is 5.48 µM. On the same count and under the same terms, the figure for `Oc1ccc(C=NN=C2c3ccccc3-c3ccccc32)c(O)c1` is 1.86 µM; for `C[C@@]12C(=O)Nc3ccc(F)cc3C(=O)N1[C@H]1c3ccccc3OC[C@@H]1[C@@H]2c1ccccc1` it is less than 0.195 µM. Turning to `COc1ccc(C(C)(C)C)cc1NC(=O)Nc1ccc2c(c1)OCO2`, the AC50 was 8.96 µM. Still for that read-out and setting: for `CCCCCCCCCCCCCCCC(=O)OC(CC(=O)O)C[N+](C)(C)C` (stereo unspecified) the value was 1.23 µM; for `CC1=C/C(=N\OS(=O)(=O)c2ccccc2)C(C)=CC1=O`, 0.597 µM. `CCN1/C(=C/c2ccc3cc(C)ccc3[n+]2CC)Sc2cc(C)ccc21`: the AC50 is 5.54 µM. With `O=c1c2ccccc2sn1-c1ccccc1`, the AC50 was 9.19 µM.

Consider `CC(C)Cn1c(=O)c(C(=O)Nc2ccncc2)c(O)c2ccccc21`, for which the concentration at half-maximal activity (AC50) is 8.25 µM. Consider `CN(C)/C=C/C(=O)c1ccc2noc(-c3ccccc3)c2c1`, for which the AC50 is 8.37 µM.

With `CC(=NNc1nc2ccccc2s1)c1ncccn1`, the AC50 was 2.36 µM.

Turning to `Cc1ccc(C)c(/C=C/C(=O)c2ccccc(=O)c2O)c1`, the AC50 is 2.19 µM. The same measure, in the same setting: the figure for `Cc1cc(C)c2c(N=NN3CCCCC3)[nH]nc2n1` is 4.73 µM.

`O=C(O)CC/C(=N/Nc1ccc([N+](=O)[O-])cc1)C(=O)O`: the AC50 is 2.22 µM. On the same count and under the same terms, for `Cc1ccc(NC(=S)NCC23C=CC(O2)C2C(=O)N(c4ccc(C)cc4)C(=O)C23)cc1` (stereo unspecified) the value was 8.61 µM. As for `O=C1c2cc(Cl)ccc2-c2c(O)cc(Cl)cc21`, the half-maximal activity concentration (AC50) was 1.4 µM.

`O=C1C(F)=CC(COC(c2ccccc2)(c2ccccc2)c2ccccc2)OC1n1cc(F)c(=O)[nH]c1=O` (stereo unspecified): the AC50 is 0.718 µM. On the same count and under the same terms, for `CC1=NN(c2nc3ccccc3[nH]2)C(=O)/C1=C/N(C)C` the value was 2.23 µM.

Take `COC(=O)C1CCN(C2CC(=O)N(c3cc(C)cc(C)c3)C2=O)CC1` (stereo unspecified): the AC50 was 7.68 µM. On the same count and under the same terms, for `COC(=O)/C=C\C(=O)Nc1cccc([N+](=O)[O-])c1` the value was 2.43 µM; for `COc1ccc(/C=C/C(=O)NC(=S)NNC(=O)c2cnccn2)cc1`, 0.854 µM; for `CCN(CC)N=Nc1[nH]nc2nc(C)cc(C)c12`, 4.33 µM. On the same count and under the same terms, the figure for `CC(C)Oc1ccc(C(=O)/C=C2/C(=O)Nc3ccccc32)cc1` is 2.62 µM.

Consider `CC1(C)CC[C@]2(C(=O)O)CC[C@]3(C)C(=CC[C@@H]4[C@@]5(C)CC[C@H](O[C@@H]6O[C@H](C(=O)O)[C@@H](O)[C@H](O[C@@H]7OC[C@H](O)[C@H](O)[C@H]7O)[C@H]6O)C(C)(C)[C@@H]5CC[C@]43C)[C@@H]2C1`, for which the AC50 is 1.06 µM. Same read-out and setting: for `CC[C@H](C)/C=C/C1=CC2=C(Cl)C(=O)[C@@]3(C)OC(=O)C(C(=O)[C@H](C)[C@@H](C)O)=C3C2=CO1` the value was 15.2 µM; for `CC(=NNC(=S)N1CCC1)c1ccccn1`, 1.72 µM. Still for that read-out and setting: for `CCOC(=O)c1ccc(N2C(=O)CC(N3CCC(Nc4ccc(F)cc4)CC3)C2=O)cc1` (stereo unspecified) the value was 4.58 µM; for `CCN(CC)C1CC(=O)N(c2ccc(Br)cc2)C1=O` (stereo unspecified), 2.97 µM; for `CC(=O)NC(c1ccc(C)cc1)c1cc(Cl)c2cccnc2c1O` (stereo unspecified), 4.09 µM. Same read-out and setting: for `CCN1C/C(=C\c2cccc([N+](=O)[O-])c2)C(=O)/C(=C/c2cccc([N+](=O)[O-])c2)C1` the value was 5.63 µM. Turning to `O=C(Nc1ccccc1Cl)/C(Cl)=C(\Cl)S(=O)c1ccccc1` (stereo unspecified), the AC50 was 0.718 µM. With `Cc1cc(C)c2c(N=NN3CCOCC3)[nH]nc2n1`, the AC50 was 7.65 µM. The same measure, in the same setting: for `O=C1NC(=S)S/C1=C\c1cc2ccccc2nc1N1CCCCC1` the value was 8.4 µM; for `CC(=NNc1nc2ccccc2o1)c1cc2ccccc2cn1`, 17.7 µM; for `CCN(CC)C1CC(=O)N(c2cccc(Cl)c2)C1=O` (stereo unspecified), 0.97 µM.

For `O=C1NC(=S)S/C1=C\C=C\c1ccc([N+](=O)[O-])o1`, the AC50 is 2.45 µM.

For `CN1CCc2nc3sc(C(=O)C45CC6CC(CC(C6)C4)C5)c(N)c3cc2C1`, the AC50 was 0.502 µM.

As for `N#C/C(=C\c1cccc([N+](=O)[O-])c1)C(=O)NCc1ccc(Cl)cc1`, the AC50 was 6.75 µM. On the same count and under the same terms, for `N/C(Cc1ccc(Cl)cc1)=N\OC(=O)c1cccc2ccccc12` the value was 2.19 µM; for `Oc1c(CN2CCN(c3ccccc3)CC2)cc(Br)c2cccnc12`, 7.92 µM; for `O=C(OCn1ncc(Br)c(Br)c1=O)c1ccccc1Cl`, 4.29 µM.

In the case of `O=C(CSCC(=O)N1CCCCC1)Nc1nc(-c2ccc(Cl)s2)cs1`, the AC50 is 4.76 µM. Same read-out and setting: for `Cc1c(C(=O)N(Cc2ccccc2)Cc2cccs2)cnn1-c1ccc(Cl)cc1` the value was 5.05 µM; for `CCCCC(=O)NC(c1cccs1)c1cc(Cl)c2cccnc2c1O` (stereo unspecified), 4.18 µM.

For `O=[N+]([O-])c1ccc(C=Nc2ccc(Cl)c([N+](=O)[O-])c2)s1`, the AC50 was 2.13 µM.

Take `COc1ccc(N2CCN(c3c(S(=O)(=O)c4ccccc4)cnc4ccc(OC)cc34)CC2)cc1`: the half-maximal activity concentration (AC50) is 3.9 µM. Still for that read-out and setting: for `O=C1C(Cl)=C(Oc2ccccc2)C(=O)c2ccccc21` the value was less than 0.195 µM; for `Cc1ccc(-n2nnnc2C(Cl)(Cl)c2nnnn2-c2ccc(C)cc2)cc1`, 1.12 µM; for `Cc1cc2c(cc1C)CSC(c1c(O)ccc3ccccc13)SC2`, 4.26 µM.

With `O=C(/C=C/c1cccc([N+](=O)[O-])c1)c1cccs1`, the half-maximal activity concentration (AC50) is 2.63 µM. Still for that read-out and setting: for `CC1(C)N=C(SCC(=O)Nc2ccc(Cl)cc2)C(c2ccc(Cl)cc2)=N1` the value was 8.73 µM. The same measure, in the same setting: for `CC(C)N(CCC(=O)c1ccc2ccccc2c1)Cc1ccccc1` the value was 17.6 µM; for `COC(=O)c1ccc(N2C(=O)CC(N(C)Cc3ccccc3)C2=O)cc1` (stereo unspecified), 8.53 µM; for `COc1ccccc1OCc1cc(C(=O)N2CCN(C)C(c3ccccc3)C2)no1` (stereo unspecified), 3.05 µM. Same read-out and setting: for `Cc1ccc(NC(=O)c2cc(N3C(=O)C=CC3=O)ccc2N2CCOCC2)cc1Cl` the value was less than 0.195 µM; for `CC[C@@H]1Cc2cc(O)ccc2C2=C1c1ccc(O)cc1C[C@H]2CC`, 7.76 µM; for `Cc1ccc(NS(=O)(=O)c2ccc(N3CCN(c4ccc(O)cc4)CC3)c([N+](=O)[O-])c2)c(C)c1`, 5.7 µM.

`COc1ccc(NC(=O)c2sc3ncnc(N4CCN(c5ccccn5)CC4)c3c2C)cc1Cl`: the AC50 was 3.46 µM. The same measure, in the same setting: the figure for `Cc1ccc2nc(-c3ccc(NS(C)(=O)=O)cc3)cc(-c3ccccc3)c2c1` is 2.95 µM; for `COc1ccc2c(n1)Sc1nc3ccccc3nc1N2` it is 12.1 µM.

For the compound `CC(=O)N1CCN(c2ccc(OC[C@H]3CO[C@](Cn4ccnc4)(c4ccc(Cl)cc4Cl)O3)cc2)CC1`, the AC50 was 1.29 µM. Same read-out and setting: for `O=[N+]([O-])c1ccc(N2N=C(c3ccccc3)CC2c2ccccc2O)cc1` (stereo unspecified) the value was 3.91 µM. The same measure, in the same setting: for `Cc1ccc(O)c(-c2cc(-c3cccc(F)c3)n[nH]2)c1` the value was 17.2 µM; for `O=C(NNc1nc2ccc(Cl)cc2s1)c1cc(-c2cccs2)nc2ccccc12`, 1.49 µM; for `O=C(Nc1nc(-c2cccs2)cs1)c1ccc([N+](=O)[O-])o1`, 5.69 µM.

`O=S(=O)(NC1CC2CCC1C2)c1ccc(Br)cc1` (stereo unspecified): the AC50 was 0.86 µM.

With `CCOC(=O)/C=C/C(=O)Nc1cccc([N+](=O)[O-])c1`, the AC50 was 3.5 µM.

In the case of `C[CH2][Hg][S]c1ccccc1C(=O)O`, the concentration at half-maximal activity (AC50) was 4.9 µM. Same read-out and setting: for `CC(C)N1CCN(c2ccc(OC[C@H]3CO[C@](Cn4cncn4)(c4ccc(Cl)cc4Cl)O3)cc2)CC1` the value was 1.5 µM; for `COC(=O)c1ccc(NC(=O)c2cn(-c3ccccc3)nc2-c2ccncc2)cc1`, 4.08 µM. Take `Cc1cc2ccccn2c1C(=O)c1ccc([N+](=O)[O-])o1`: the AC50 is 2.33 µM. The same measure, in the same setting: for `COc1ccc(C2=CC3=C(Br)C(=O)C(C)(OC(=O)C4CCCC4)C(=O)C3=CO2)cc1` (stereo unspecified) the value was 4.4 µM; for `Nc1cccc(Oc2c(F)c(F)c(Oc3cccc(N)c3)c(F)c2F)c1`, 9.03 µM. For the compound `O=C1C=C(c2cccs2)C[C@H](c2ccccc2)[C@H]1n1nnc([N+](=O)[O-])n1`, the AC50 was 11.8 µM. The same measure, in the same setting: the figure for `O=C(Nc1cc(Cl)ccc1-n1cncn1)c1ccc([N+](=O)[O-])s1` is 4.2 µM; for `Cc1sc2ncnc(N/N=C/c3ccccc3O)c2c1C` it is 4.4 µM.

`CC(=NNC(=S)N1CC2CCC(CC2)C1)c1nccs1`: the AC50 was 25.7 µM.

For `Cc1cc2cc(CNC(=O)c3ccc(C)c([N+](=O)[O-])c3)ccc2[nH]1`, the AC50 is 8.29 µM. The same measure, in the same setting: for `CC1(c2nnc(Cc3ccccc3)o2)CC(c2ccccc2[N+](=O)[O-])=NO1` (stereo unspecified) the value was 1.77 µM.

Turning to `N#Cc1c2ccc([N+](=O)[O-])cc2[n+]([O-])n1-c1ccccc1`, the AC50 is 2.1 µM. The same measure, in the same setting: the figure for `Cc1ccc(/C=[N+](\[O-])c2ccc(N(C)C)cc2)c2nsnc12` is 8.1 µM.

Staying with this experiment, now noted: yeast expressing the parasite Hsp90, ATP luminescence, at 26 µM (top of the series).
Consider `CN(C)c1ccc(-c2cc(O)c3ncccc3c2)cc1`, for which the activity change, negative = inhibition is 26.4% (inactive).

Regarding `O=C1S/C(=C/c2ccc(N3CCOCC3)o2)C(=O)N1Cc1c(F)cccc1Cl`, the activity change, negative = inhibition was 23.4% (inactive).
